Assay results published in the NIST ThermoML archive (doi:10.1016/j.fluid.2006.12.015).

Assays:
[1] = Liquid, Ebulliometric method (Recirculating still)
[2] = refractive index (Na D-line) (dimensionless); details: 298.15 K; 101.33 kPa; Liquid; Standard Abbe refractometry

CCOC(C)(C)C [2-ethoxy-2-methylpropane]
[1]
Details	vapor or sublimation pressure [kPa]
312.51 K	30.76
318.88 K	39.54
326.24 K	52.05
331.11 K	62.01
333.15 K	66.52
335.04 K	71.06
339.18 K	81.64
342.53 K	91.06
343.15 K	92.96
345.9 K	101.41

Details	refractive index
[2]	1.373

CCSCC [3-thiapentane]
[1]
Details	vapor or sublimation pressure [kPa]
333.15 K	34.97
343.15 K	50.14
353.15 K	70.15

Details	refractive index
[2]	1.44

C1CCCCC1 [cyclohexane]
[1]
Details	vapor or sublimation pressure [kPa]
318.47 K	30.51
326.06 K	40.65
331.63 K	49.56
337.52 K	60.6
342.21 K	70.8
343.15 K	72.66
346.25 K	80.64
350.08 K	90.89
353.15 K	99.41
353.32 K	100.38

Details	refractive index
[2]	1.4235

Cc1ccccc1 [toluene]
Details	refractive index
[2]	1.4939
